With `Oc1c(Br)cc(F)cc1Cc1cc(Cl)cc(Cc2cc(F)cc(Br)c2O)c1O` as the molecule, how does the melting point read?
The melting point was 192 to 194 °C.

Which melting point does the source give for `CC(C)(C)OC(=O)N1CCN(CCOc2cc(-c3ccccc3)on2)CC1` here?
The melting point was 110 to 111 °C.

For `CCCCCCCCCCCCCCCCNc1ccc(C(=O)OCC(C)O)cc1` (stereo not given), which melting point is on record?
The melting point was 91 to 93 °C.

Which melting point does the source give for `C=C(c1cc(F)ccc1OCc1ccc(Cl)cc1Cl)n1ccnc1` here?
Its melting point is 118 to 120 °C.

Which melting point does the source give for `CC(C(=O)N(C)C)n1ccc(-c2cccs2)n1` (stereo not given) here?
Its melting point is 95 to 97 °C.

Which melting point does the source give for `CCOC(=O)C=Cc1ccc(N)cc1C` here?
The melting point was 73 to 74 °C.

For `Cc1cccc(Cl)c1OC1CN(C(=O)Cl)C1`, which melting point is on record?
The melting point was 67 to 69 °C.

Which melting point does the source give for `O=C(CCCCCCNC(=O)c1ccc(C(C(=O)Nc2cccc3cccnc23)C(=O)Nc2cccc3cccnc23)cc1)NO` here?
Its melting point is 212 to 215 °C.

Which melting point does the source give for `CC12CCC(C1)C1(C)Oc3ccc(C(O)c4ccc5cc(C(=O)O)ccc5c4)cc3C21C` (stereo not given) here?
The melting point was 146 to 148 °C.

For `CCN(c1cc(Cl)ccc1C(=O)c1cnoc1C1CC1)S(C)(=O)=O`, which melting point is on record?
The melting point was 114 to 116 °C.

For `CC1CCc2c(F)c(F)cc3c(=O)[nH]c(=O)n1c23` (stereo not given), which melting point is on record?
Its melting point is 212 to 214 °C.

With `COc1cc(OCc2ccccc2)ccc1C(=O)c1cc(Cl)ccc1N` as the molecule, how does the melting point read?
The melting point was 97 to 98 °C.

For `CCCCCC(=O)C=Cc1cc(O)c2c(c1)OC(C)(C)C1CC=C(C)CC21` (stereo not given), which melting point is on record?
Its melting point is 119 °C.

Which melting point does the source give for `CCCN(CCC)C(=O)c1cc(C(=O)O)cc(-c2ncco2)c1` here?
Its melting point is 131 to 133 °C.

For `COc1ccc2c(c1O)NC(=O)C1CCCN1C2=O` (stereo not given), which melting point is on record?
Its melting point is 275 to 278 °C.

Which melting point does the source give for `CCn1c(=O)c2ccccc2n2cnc(-c3nc(COC)no3)c12` here?
The melting point was 176 °C.

For `O=C(O)c1cn(Cc2cnsn2)c2cc(F)c(F)cc2c1=O`, which melting point is on record?
The melting point was 278 to 282 °C.

For `Cc1cccc(S(=O)(=O)Nc2cccnc2Nc2ccccc2)c1`, which melting point is on record?
The melting point was 161 to 162 °C.

Which melting point does the source give for `O=C1Cn2nc(-c3ccc(F)cc3)c(-c3ccncc3)c2N1` here?
The melting point was over 250 °C.

For `S=C(Cc1ccc(Oc2ccc(I)cc2)cc1)N1CCOCC1`, which melting point is on record?
The melting point was 123 to 127 °C.

Which melting point does the source give for `Cc1nn(-c2c(Cl)cc(C(F)(F)F)cc2Cl)nc1CC#N` here?
The melting point was 103 to 104 °C.

For `NC(=O)CN1C(=O)COc2cc(F)c(N3C(=O)C4=C(CCCC4)C3=O)cc21`, which melting point is on record?
Its melting point is 283 to 286 °C.

For `CN1C2CCC1CN(c1ccc(-c3cccs3)nn1)C2`, which melting point is on record?
Its melting point is 156 °C.

For `CC(C)(C(=O)O)c1ccc2cc(O)ccc2c1`, which melting point is on record?
The melting point was 208 to 210 °C.

With `COc1ccc(Cn2c(=O)oc(=O)c3cc(F)cnc32)cc1` as the molecule, how does the melting point read?
Its melting point is 143 °C.

Which melting point does the source give for `C=CCNC(=S)N1CCc2[nH]cnc2C1CC` (stereo not given) here?
Its melting point is 205 °C.

With `CCOCCc1c(-c2ccccc2)nc(Cl)n2ncnc12` as the molecule, how does the melting point read?
The melting point was 134 to 135 °C.

With `COc1cc(Nc2c(C#N)cnc3cc4cc(OCCN5CCC(O)CC5)c(OC)cc4cc23)c(Cl)cc1Cl` as the molecule, how does the melting point read?
The melting point was 193 to 198 °C.

With `CCOC(=O)C1=C(COCc2cc(=O)[nH]c(N)n2)NC(C)=C(C(=O)OC)C1c1cccc(Cl)c1Cl` (stereo not given) as the molecule, how does the melting point read?
Its melting point is 222 to 225 °C.

With `O=c1n(CC(F)(F)F)c2cc(F)ccc2n1C1CCNCC1` as the molecule, how does the melting point read?
Its melting point is over 280 °C.

With `COc1cc(Nc2c(C#N)cnc3cc(/C=C/CCN4CCOCC4)c(OC)cc23)c(Cl)cc1Cl` as the molecule, how does the melting point read?
The melting point was 141 to 143 °C.

For `Cc1nc2c(O)cccc2c(Cl)c1C`, which melting point is on record?
The melting point was 120 °C.

For `Nc1ncccc1CNC(=O)C1Cc2ccccc2N1S(=O)(=O)c1ccc(-c2cccc(C(F)(F)F)c2)cc1` (stereo not given), which melting point is on record?
The melting point was 94 °C.

Which melting point does the source give for `O=C(O)COc1ccc2c(c1)CCc1sc(SC(c3ccccc3)c3ccccc3)nc1-2` here?
The melting point was 193 to 195 °C.

For `COC(=O)c1cc(CC(C)NCC(O)c2ccc(O)c(CO)c2)ccc1OC` (stereo not given), which melting point is on record?
The melting point was 69 to 73 °C.

With `CCOCC(=O)c1cc(C(C)(C)C)c(O)c(C(C)(C)C)c1` as the molecule, how does the melting point read?
Its melting point is 73 to 75 °C.

Which melting point does the source give for `COc1ccc(Sc2c([N+](=O)[O-])ccc(Cl)c2C(=O)O)cc1` here?
The melting point was 154 to 157 °C.

With `COC(=O)C=Cc1ccc(OCc2nc(-c3ccccc3)c(C)s2)cc1` as the molecule, how does the melting point read?
Its melting point is 142 to 143 °C.

For `CCCn1cc(S(C)=O)c(=O)c2ccccc21` (stereo not given), which melting point is on record?
The melting point was 126 to 128 °C.

With `COc1ccc(-c2nc(-c3nccn3Cc3ccccc3)[nH]c2-c2ccc(OC)cc2)cc1` as the molecule, how does the melting point read?
The melting point was 180 °C.

Reference: a melting point compilation (Tetko et al.; mined from patent text by program, amines drawn as free bases though some values may be those of a salt)
